Data: patent US9278090B2, “Methods of preventing the development of mucositis and related disorders” (The United States of America, as represented by the …, priority 2012, dated 2016)

System: human primary NOK
Assay: Replicative senescence / cumulative population doublings
Type: cell-based
Conditions: in the presence of rapamycin; estimated
Procedure: NOK were plated in collagen coated LabTek chamber slides and treated with vehicle or 20 nM rapamycin for 3 days. Cells were then γ-irradiated or not, and further treated with vehicle or rapamycin for 24 h. For TUNEL assay cells were processed for staining immediately, for SA-β-gal cells were passed and assessed 4 days after plating. Apoptosis was detected using the CLICK-IT™ TUNEL ALEXA FLUOR™ 594 Imaging Assay (Life Technologies, Carlsbad, Calif.) and SA-β-gal activity was measured using the SA-β-gal kit (Cell Signaling Technology, Danvers, Mass.) according to the manufacturer's instructions. The proportion of positive cells was determined by fluorescence or transmission microscopy and quantified using ImageJ. Eight different fields containing approximately 60 cells each were quantified per condition. For the calculation of population doublings cells were cultured as described and treated with vehicle or 20 nM rapamycin. Population doublings were calculated every passage using the formula x=[log 10(NH/N1)]/log 10(2)] (Cristofalo et al., PNAS, 95, 10614-10619 (1998)), where N1 is the inoculum cell number and NH the cell harvest number. To yield the cumulated doubling doublings, the population doublings for each passage was calculated and then added to the population doubling levels of the previous passages.

Structure (SMILES): CO[C@H]1C[C@@H]2CC[C@@H](C)[C@@](O)(O2)C(=O)C(=O)N2CCCC[C@H]2C(=O)O[C@H]([C@H](C)C[C@@H]2CC[C@@H](O)[C@H](OC)C2)CC(=O)[C@H](C)/C=C(\C)[C@@H](O)[C@@H](OC)C(=O)[C@H](C)C[C@H](C)/C=C/C=C/C=C/1C [rapamycin]
- cells a single cell will give rise to before senescence: around 10^17 cells
